Columns and labels:
[1] = tested on: Escherichia coli ESS (DS10031); assay: Bioassay development: growth in 2xTY medium with serial dilutions of antibiotic, OD600; format: cell-based; conditions: 16 hours
Experimental: (§1) The bacterial strains Escherichia coli ESS, Bacillus subtilis ATCC6633 and Micrococcus luteus ATCC9341 were grown overnight in 2×TY-medium at 30° C. and 280 rpm. After 16 hours of growth, the OD^600 was measured. Typically, the OD^600 amounts 5.0, ranging from 2.0 to 8.0.
(§2) A solution of amoxicillin was made at a concentration of 7 mg/ml. Subsequently, serial dilutions were made ranging from 1 mg/l down to 0.001 mg/l. MilliQ water served as a negative control.
(§3) In a 96 wells microplate, 25 μl of the serial dilutions were pipetted in the wells. Each microplate was prepared in duplicate. The overnight bacterial cultures were diluted in fresh 2×TY-medium to a final OD^600 of 0.01. To each well, 150 μl of the diluted bacterial cultures was added. The microplates were covered with a lid, and incubated overnight at 25° C. and the duplicate microplate at 37° C.
(§4) After 16 hours of incubation, the OD^600 was read in a microplate reader. From the results, the concentration of amoxicillin still allowing uninhibited growth of the test microorganisms can be read.
(§5) A solution of ampicillin was made at a concentration of 7 mg/ml. Subsequently, serial dilutions were made ranging from 1 mg/l down to 0.001 mg/l. MilliQ water served as a negative control.
as §3, with “gas permeable adhesive seal,” for “lid,”
(§6) After 16 hours of incubation, the OD^600 was read in a microplate reader. From the results, the concentration of ampicillin still allowing uninhibited growth of the test microorganisms can be read.

[2] = tested on: Micrococcus luteus ATCC9341; assay: as above; format: cell-based; conditions: 16 hours
Experimental: as §1, §2, §3, §4, §5
as §3, with “gas permeable adhesive seal,” for “lid,”
as §6

[3] = tested on: Bacillus subtilis ATCC6633; assay: as above; format: cell-based; conditions: 16 hours
Experimental: as §1, §2, §3, §4, §5
as §3, with “gas permeable adhesive seal,” for “lid,”
as §6

IPNS = conditions: Huffman et al. J. Med. Chem. 1992; cited from earlier work

In the case of CC1(C)S[C@@H]2[C@H](NC(=O)[C@H](N)c3ccc(O)cc3)C(=O)N2[C@H]1C(=O)O [Amoxicillin, amoxicillin], the “Concentration of amoxicillin still allowing uninhibited growth in 2xTY medium” value ([1]; at 25° C.) is reported as 0.1 mg/L, the “Concentration of amoxicillin still allowing uninhibited growth in 2xTY medium” value ([1]; at 37° C.) is reported as 0.1 mg/L and the “Concentration of amoxicillin still allowing uninhibited growth in 2xTY medium” value ([2]; at 25° C.) is reported as 0.001 mg/L. The “Concentration of amoxicillin still allowing uninhibited growth in 2xTY medium” value ([2]; at 37° C.) was 0.002 mg/L, the “Concentration of amoxicillin still allowing uninhibited growth in 2xTY medium” value ([3]; at 25° C.) was 1.0 mg/L and the “Concentration of amoxicillin still allowing uninhibited growth in 2xTY medium” value ([3]; at 37° C.) was 5 mg/L.

With CC1(C)S[C@@H]2[C@H](NC(=O)[C@H](N)c3ccccc3)C(=O)N2[C@H]1C(=O)O [Ampicillin, ampicillin] the “Concentration of ampicillin still allowing uninhibited growth in 2xTY medium” value ([1]; at 25° C.) was 0.05 mg/L, the “Concentration of ampicillin still allowing uninhibited growth in 2xTY medium” value ([1]; at 37° C.) was 0.05 mg/L and the “Concentration of ampicillin still allowing uninhibited growth in 2xTY medium” value ([2]; at 25° C.) was 0.001 mg/L. For the same molecule, the “Concentration of ampicillin still allowing uninhibited growth in 2xTY medium” value ([2]; at 37° C.) was 0.002 mg/L, the “Concentration of ampicillin still allowing uninhibited growth in 2xTY medium” value ([3]; at 25° C.) was 0.5 mg/L and the “Concentration of ampicillin still allowing uninhibited growth in 2xTY medium” value ([3]; at 37° C.) was 2.5 mg/L.

In the case of CC(C)[C@@H](NC(=O)[C@H](CS)NC(=O)Cc1ccc(O)cc1)C(=O)O [p-hydroxyphenylacetyl-L-cysteinyl-D-valine], the “Antibiotic activity after treatment of the substrate with IPNS” value (IPNS) is listed as “not to result in antibiotic activity”.

In the case of “m-COOH-DL-phenylglycyl-L-cysteinyl-D-valine”, the “Antibiotic activity after treatment of the substrate with IPNS” value (IPNS) is listed as “not to result in antibiotic activity”.

— patent US8293511B2, “Production of β-Lactam antibiotics” (DSM IP Assets B.V., priority 2006, dated 2012)
